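Compound exposure: 48 hours, 5 concentrations, 96-well plates. The concentration for full growth arrest is given as TGI.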 Some results are limits rather than exact numbers.

Some test systems named below: A498 renal; DLD-1 colon; DMS 114 small cell lung; DMS 273 small cell lung; HCT-116 colon; HCT-15 colon; HOP-62 NSCLC; KM20L2 colon; LXFL 529 NSCLC; M19-MEL melanoma; NCI-H460 lung; OVCAR-5 ovarian; SK-MEL-28 melanoma; SK-OV-3 ovarian; SN12C renal; SNB-78 CNS; XF 498 CNS.
What all share (test): NCI anticancer screen, dose series, 48 h

`N#CC(C(=N/NC(N)=S)/C(=N\NC(N)=S)C(C#N)c1ccccc1)c1ccccc1` (stereo not given): the TGI in the assay with A498 renal, in the assay with DLD-1 colon, with DMS 114 small cell lung, with DMS 273 small cell lung, with HCT-116 colon and with HCT-15 colon was over 10 µM in each case. Besides, the TGI with HOP-62 NSCLC, in the assay with KM20L2 colon, in the assay with LXFL 529 NSCLC, in the assay on M19-MEL melanoma, with NCI-H460 lung and in the assay with OVCAR-5 ovarian was over 10 µM each time. In addition, the TGI in the assay with SK-MEL-28 melanoma, with SK-OV-3 ovarian, with SN12C renal, in the assay on SNB-78 CNS and in the assay with XF 498 CNS was over 10 µM throughout.
With `CCOC(=O)NC(=O)c1cn(-c2ccc(CCOC(=O)CCCCCCCCC(=O)OCCc3ccc(-n4cc(C(=O)NC(=O)OCC)c(=O)[nH]c4=O)cc3)cc2)c(=O)[nH]c1=O`, the TGI in the assay on DLD-1 colon, in the assay on DMS 114 small cell lung, in the assay with HCT-116 colon, with HCT-15 colon, in the assay on HOP-62 NSCLC and in the assay with KM20L2 colon was over 100 µM throughout. In addition, the TGI with LXFL 529 NSCLC, in the assay with M19-MEL melanoma, in the assay with NCI-H460 lung, with OVCAR-5 ovarian, in the assay with SK-MEL-28 melanoma and in the assay on SK-OV-3 ovarian was over 100 µM each time. In addition, the TGI in the assay on SN12C renal, in the assay on SNB-78 CNS and in the assay with XF 498 CNS was over 100 µM throughout.
As to `CCCN(CCC)C(=O)Cc1c2n(c3ccccc13)CCCc1ccccc1-2`, the TGI with DLD-1 colon was determined as 26.5 µM; in the assay on DMS 114 small cell lung, 24.1 µM; with DMS 273 small cell lung, 23.2 µM; with HCT-116 colon, 26.3 µM; in the assay with HCT-15 colon, 23.8 µM; in the assay with HOP-62 NSCLC it was 30.3 µM. The TGI turned out to be 27.9 µM in the assay on KM20L2 colon; 26.6 µM with LXFL 529 NSCLC; 29.5 µM with M19-MEL melanoma; 29.3 µM in the assay with NCI-H460 lung; 29.9 µM with SK-MEL-28 melanoma; 29 µM in the assay on SK-OV-3 ovarian. Besides, the TGI with SN12C renal amounted to 29.2 µM; in the assay on SNB-78 CNS, 27.6 µM; in the assay on XF 498 CNS, 28.8 µM.
With `C/C(CC(=O)Nc1ccc(C)cc1)=N\NC(N)=S`, the TGI in the assay with A498 renal, with DLD-1 colon, with DMS 114 small cell lung, with HCT-116 colon, in the assay with HOP-62 NSCLC and with KM20L2 colon was over 100 µM throughout. In addition, the TGI with LXFL 529 NSCLC, in the assay on M19-MEL melanoma, in the assay with NCI-H460 lung, with OVCAR-5 ovarian, with SK-MEL-28 melanoma and in the assay with SK-OV-3 ovarian was over 100 µM throughout. The TGI with SNB-78 CNS and in the assay with XF 498 CNS was over 100 µM each time.
With `COc1cc2c(cc1OC)[C@]1(O)C(=O)c3ccc4c(c3O[C@@H]1CO2)C[C@H](C(C)(C)O)O4`, the TGI in the assay with A498 renal, in the assay with DLD-1 colon, in the assay on DMS 114 small cell lung, in the assay with DMS 273 small cell lung, in the assay with HCT-116 colon and in the assay with HOP-62 NSCLC was over 100 µM in each case. Further, the TGI in the assay with KM20L2 colon, in the assay on LXFL 529 NSCLC, in the assay with M19-MEL melanoma, in the assay with NCI-H460 lung, in the assay on OVCAR-5 ovarian and with SK-MEL-28 melanoma was over 100 µM throughout. Moreover, the TGI in the assay on SK-OV-3 ovarian, in the assay on SNB-78 CNS and in the assay with XF 498 CNS was over 100 µM in each case.
Turning to `COc1ccc(OC)c2c1C(=O)C(Cl)=C(Cl)C2=O`, the TGI came out at 41.6 µM with A498 renal; 11.8 µM in the assay on DLD-1 colon; 4.76 µM in the assay on DMS 114 small cell lung; 20.1 µM in the assay with DMS 273 small cell lung; 3.86 µM with HCT-116 colon; 10.7 µM in the assay with HCT-15 colon. The TGI stood at 22.3 µM in the assay with KM20L2 colon; 4.74 µM in the assay on LXFL 529 NSCLC; 16.2 µM with M19-MEL melanoma; 44.3 µM in the assay with NCI-H460 lung; 29.6 µM with OVCAR-5 ovarian; 12.8 µM with SK-MEL-28 melanoma. Also, the TGI is 67.4 µM in the assay on SK-OV-3 ovarian, 23.1 µM in the assay with SN12C renal, 15.8 µM in the assay on SNB-78 CNS and 3.67 µM with XF 498 CNS.
Turning to `COc1cc([C@@H]2c3cc4c(cc3[C@@H](NC(=O)c3ccc(C(C)=O)cc3)C3COC(=O)[C@@H]32)OCO4)cc(OC)c1O` (stereo not given in full), the TGI in the assay with A498 renal was 5.87 µM; in the assay on DLD-1 colon, 17.7 µM; with DMS 114 small cell lung, 4.74 µM; in the assay on DMS 273 small cell lung, 7.62 µM; in the assay on HCT-116 colon, 5.03 µM; in the assay with HCT-15 colon it was 17.3 µM. Also, the TGI in the assay with HOP-62 NSCLC was 1.35 µM; with KM20L2 colon, 8.05 µM; with LXFL 529 NSCLC it was over 100 µM; with M19-MEL melanoma, 25.5 µM; in the assay with NCI-H460 lung, 1.53 µM; with OVCAR-5 ovarian, 7.69 µM. Further, the TGI amounted to 33.6 µM in the assay with SK-MEL-28 melanoma; 9.46 µM in the assay on SK-OV-3 ovarian; 2.03 µM in the assay on SN12C renal; 85 µM in the assay with SNB-78 CNS; 5.7 µM with XF 498 CNS.
As for `c1ccc(SCCP(CCP(c2ccccc2)c2ccccc2)c2ccccc2)cc1` (stereo not given), the TGI in the assay on DLD-1 colon is over 100 µM; with DMS 114 small cell lung it was 33.2 µM; in the assay on DMS 273 small cell lung it was 13.6 µM; in the assay on HCT-116 colon it was over 24.3 µM; in the assay with HCT-15 colon it was over 100 µM; in the assay on HOP-62 NSCLC, over 100 µM. In addition, the TGI in the assay with LXFL 529 NSCLC was 23.3 µM; in the assay with M19-MEL melanoma it was over 100 µM; in the assay on NCI-H460 lung, over 100 µM; in the assay on OVCAR-5 ovarian it was over 100 µM; with SK-MEL-28 melanoma it was over 100 µM; in the assay with SK-OV-3 ovarian it was over 100 µM. The TGI with SN12C renal was over 88.6 µM; in the assay with SNB-78 CNS, over 100 µM; in the assay on XF 498 CNS it was 8.15 µM.
For `CC1=CC(=O)c2cccc(O)c2C1=O`, the TGI in the assay on A498 renal came out at 33.5 µM; in the assay with DMS 114 small cell lung, 7.89 µM; in the assay on DMS 273 small cell lung, 5.01 µM; in the assay on HCT-116 colon it was 3.49 µM; with HCT-15 colon, 3.04 µM; in the assay with HOP-62 NSCLC, 30.9 µM. Also, the TGI with KM20L2 colon was determined as 41.6 µM; with LXFL 529 NSCLC, 3.06 µM; in the assay on M19-MEL melanoma it was 4.05 µM; with NCI-H460 lung, 18.9 µM; with OVCAR-5 ovarian, 14.8 µM; in the assay on SK-MEL-28 melanoma, 7.81 µM. Further, the TGI with SK-OV-3 ovarian was 27.4 µM; in the assay on SN12C renal it was 5.11 µM; in the assay on SNB-78 CNS, over 62.4 µM; with XF 498 CNS, 3.2 µM.

These data come from PubChem BioAssay (NCI).
